# pIC50: −log10 of the molar value. Where “and” joins values, the source holds several entries; their conditions need not be identical. Equal entries are not always repeated. Entries after “also recorded” stand apart in the source; their conditions may differ.
# Experiments:
# [1] = target: T1, 5-HT1A receptor (Homo sapiens, UniProt P08908); test: cAMP-Glo assay of 5-HT1A receptor modulation in CHO-K1/5-HT1A/Ga15 cells; type: cell-based; conditions: +5-HT1A vs −5-HT1A cells, 4 mM forskolin, increasing ligand concentrations
# T1 construct: host or cells: CHO-K1 (co-expressing Ga15)
# T1 sequence (P08908 1-422): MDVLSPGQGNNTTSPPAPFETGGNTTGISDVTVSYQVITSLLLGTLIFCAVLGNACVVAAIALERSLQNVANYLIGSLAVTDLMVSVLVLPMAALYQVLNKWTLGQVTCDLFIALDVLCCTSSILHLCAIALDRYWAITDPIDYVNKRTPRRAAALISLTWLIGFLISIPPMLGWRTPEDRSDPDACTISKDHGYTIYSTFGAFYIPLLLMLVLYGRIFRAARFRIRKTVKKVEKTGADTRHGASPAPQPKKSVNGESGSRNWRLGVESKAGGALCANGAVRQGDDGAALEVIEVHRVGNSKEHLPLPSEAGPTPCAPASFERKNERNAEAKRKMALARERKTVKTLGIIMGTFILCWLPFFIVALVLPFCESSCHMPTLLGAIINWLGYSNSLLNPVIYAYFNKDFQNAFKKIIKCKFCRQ
# [2] = target: T2, 5-HT2A receptor (Mus musculus, UniProt P35363); test: Drug-induced Head Twitch Response (HTR) in mice; type: in vivo, C57BL/6-Elite mice; conditions: 1 mg/kg i.p.; for Head Twitch Response (HTR): 15-to-30-minute window post-drug, relative to vehicle
# T2 construct: tissue Charles River; host or cells: living C57BL/6-Elite mice (brain, in vivo)
# [3] = target: AVPR1A (Homo sapiens, UniProt P37288); test: SAFETYscan calcium secondary messenger assay, AVPR1A; type: cell-based
# [4] = target: T3, MAO-A (Homo sapiens, UniProt P21397); test: SAFETYscan MAO-A enzyme assay; type: biochemical
# T3 construct: purchased Sigma
# T3 sequence (P21397 1-527): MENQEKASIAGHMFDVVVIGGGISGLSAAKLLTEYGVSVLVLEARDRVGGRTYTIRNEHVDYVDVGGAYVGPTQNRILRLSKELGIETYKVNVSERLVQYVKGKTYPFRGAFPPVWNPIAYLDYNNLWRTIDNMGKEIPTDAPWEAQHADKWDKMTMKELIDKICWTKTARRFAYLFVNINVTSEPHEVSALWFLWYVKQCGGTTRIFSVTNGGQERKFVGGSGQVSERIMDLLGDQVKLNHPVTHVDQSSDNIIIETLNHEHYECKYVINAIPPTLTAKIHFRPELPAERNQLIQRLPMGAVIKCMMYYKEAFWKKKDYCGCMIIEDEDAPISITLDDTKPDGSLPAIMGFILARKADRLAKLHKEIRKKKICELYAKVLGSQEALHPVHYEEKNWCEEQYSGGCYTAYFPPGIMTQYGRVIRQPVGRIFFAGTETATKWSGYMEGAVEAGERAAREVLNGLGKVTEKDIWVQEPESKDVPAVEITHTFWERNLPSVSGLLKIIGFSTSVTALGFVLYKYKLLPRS
# [5] = Mouse PK study: plasma parent compound and psilocin metabolite after dosing of the labelled compound; conditions: for Plasma concentration of E(VI) / AUC0-tlast/Dose of E(VI) / Plasma concentration of psilocybin: 1 mg/kg i.v.
# [6] = In vitro metabolic stability / psilocin release assays (liver, intestinal, serum fractions, buffer)
# [7] = 3 mg/kg oral, 24 h, individual mice, BLQ = below 0.2 ng/mL
# [8] = oral doses, any dose / timepoint
# T2 sequence (P35363 whole entry): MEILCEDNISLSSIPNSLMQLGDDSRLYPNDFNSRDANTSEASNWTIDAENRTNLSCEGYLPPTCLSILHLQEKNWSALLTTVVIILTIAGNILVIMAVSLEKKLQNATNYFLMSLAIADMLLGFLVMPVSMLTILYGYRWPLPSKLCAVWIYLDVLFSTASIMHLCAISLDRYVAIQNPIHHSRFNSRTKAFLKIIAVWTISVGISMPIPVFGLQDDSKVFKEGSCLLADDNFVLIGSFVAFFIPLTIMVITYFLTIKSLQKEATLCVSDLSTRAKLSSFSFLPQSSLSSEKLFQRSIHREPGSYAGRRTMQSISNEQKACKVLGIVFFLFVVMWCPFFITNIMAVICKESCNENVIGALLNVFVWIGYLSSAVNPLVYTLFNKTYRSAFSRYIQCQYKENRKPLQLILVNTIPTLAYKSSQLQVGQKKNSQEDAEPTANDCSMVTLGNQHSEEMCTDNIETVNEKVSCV
# Chain of AVPR1A (P37288 whole entry): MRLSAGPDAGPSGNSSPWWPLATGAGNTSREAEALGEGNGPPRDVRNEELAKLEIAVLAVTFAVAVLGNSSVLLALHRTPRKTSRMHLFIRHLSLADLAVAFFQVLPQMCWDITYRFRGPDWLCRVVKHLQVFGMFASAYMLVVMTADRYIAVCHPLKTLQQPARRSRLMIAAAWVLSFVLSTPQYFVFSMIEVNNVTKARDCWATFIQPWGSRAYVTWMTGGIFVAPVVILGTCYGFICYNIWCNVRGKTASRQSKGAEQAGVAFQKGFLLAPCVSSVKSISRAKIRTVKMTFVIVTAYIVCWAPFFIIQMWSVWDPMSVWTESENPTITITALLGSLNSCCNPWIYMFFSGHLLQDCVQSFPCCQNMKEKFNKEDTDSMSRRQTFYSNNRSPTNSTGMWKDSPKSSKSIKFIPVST
smiles,measurement,setting,value
CN(C)CCc1c[nH]c2cccc(O)c12 [psilocin],5-HT1A receptor modulation (change in % cAMP),[1],reduction in cAMP levels
CN(C)CCc1c[nH]c2cccc(OC(=O)SCc3ccccc3)c12 [E(VI)],5-HT1A receptor modulation (change in % cAMP),[1],mild receptor modulation at higher ligand concentrations
same,Head Twitch Response (HTR),[2],Elevated incidences of HTR; also recorded: elicit head twitching
same,HTR of E(VI) compared to B(II),[2]; side-by-side (FIG. 4F),elevated response
same,pIC50,[3],< 5.00
same,pIC50,[4],< 5.00
same,Plasma concentration of E(VI),"[5]; 5 min, individual mice, concentrations not considered accurate",3.20 ng/mL and 59.0 ng/mL and 11.1 ng/mL
same,Plasma concentration of E(VI),"[5]; 5 min, mean ± SD, concentrations not considered accurate",24.4 ± 30.2 ng/mL
same,Plasma concentration of E(VI),"[5]; 0.25 h, individual mice, concentrations not considered accurate",72.1 ng/mL and 110 ng/mL and 7.79 ng/mL
same,Plasma concentration of E(VI),"[5]; 0.25 h, mean ± SD, concentrations not considered accurate",63.3 ± 51.7 ng/mL
same,Plasma concentration of E(VI),"[5]; 0.5 h, individual mice, concentrations not considered accurate",13.1 ng/mL and 9.29 ng/mL and 1.03 ng/mL
same,Plasma concentration of E(VI),"[5]; 0.5 h, mean ± SD, concentrations not considered accurate",7.81 ± 6.17 ng/mL
same,Plasma concentration of E(VI),"[5]; 1 h, individual mice, concentrations not considered accurate",3.14 ng/mL and 5.84 ng/mL and No Peak
same,Plasma concentration of E(VI),"[5]; 1 h, mean, concentrations not considered accurate",4.49 ng/mL
same,Plasma concentration of E(VI),"[5]; 2 h, individual mice, values below LLOQ 1 ng/mL included",0.776 ng/mL and 0.594 ng/mL and No Peak
same,Plasma concentration of E(VI),"[5]; 2 h, mean, concentrations not considered accurate",0.685 ng/mL
same,Plasma concentration of E(VI),"[5]; 4 h, individual mice, BLQ = below 1 ng/mL",BLQ (2×) and No Peak
same,Plasma concentration of E(VI),"[5]; 6 h, individual mice, BLQ = below 1 ng/mL",No Peak (2×) and BLQ
same,Plasma concentration of E(VI),"[5]; 8 h, individual mice",No Peak
same,AUC0-tlast/Dose of E(VI),[5]; individual mice,20.4 kg·ng·h/mL/mg and 35.2 kg·ng·h/mL/mg and 3.40 kg·ng·h/mL/mg
same,AUC0-tlast/Dose of E(VI),[5]; mean ± SD,19.7 ± 15.9 kg·ng·h/mL/mg
same,detection of parent compound in plasma after oral administration,[5]; 1 mg/kg oral,neither B(II) nor E(VI) were detected in plasma
same,Plasma concentration of psilocin,"[5]; 1 mg/kg oral, 8 h, individual mice, BLQ = below 0.2 ng/mL",BLQ
same,Plasma concentration of psilocin,[5]; [7],No Peak (2×) and BLQ
same,Plasma concentration of psilocin,"[5]; 10 mg/kg oral, 24 h, individual mice, BLQ = below 0.2 ng/mL",BLQ
same,detection of parent compound in plasma after oral administration,[5]; [8],did not yield any detectable levels of E(VI); also recorded: never detected at any timepoint
NCCc1c[nH]c2ccc(O)cc12 [serotonin],5-HT1A receptor modulation (change in % cAMP),[1],reduction in cAMP levels
CN(C)CCc1c[nH]c2cccc(OC(=O)OCc3ccccc3)c12 [B(II)],Head Twitch Response (HTR),[2],elicit head twitching
same,dissociation to psilocin,"[6]; HLM, HLS9, HIM, HIS9, AB serum, buffer control (any conditions)",did not readily dissociate to psilocin under any conditions
same,detection of parent compound in plasma after oral administration,[5]; 1 mg/kg oral,neither B(II) nor E(VI) were detected in plasma
same,Plasma concentration of psilocin,"[5]; 1 mg/kg oral, 0.25 h, mean ± SD",19.7 ± 5.50 ng/mL
same,Plasma concentration of psilocin,"[5]; 1 mg/kg oral, 0.5 h, mean ± SD",11.9 ± 2.03 ng/mL
same,Plasma concentration of psilocin,"[5]; 1 mg/kg oral, 1 h, mean ± SD",4.63 ± 0.788 ng/mL
same,Plasma concentration of psilocin,"[5]; 1 mg/kg oral, 2 h, mean ± SD",2.20 ± 0.850 ng/mL
same,Plasma concentration of psilocin,"[5]; 1 mg/kg oral, 4 h, mean ± SD",2.05 ± 0.359 ng/mL
same,Plasma concentration of psilocin,"[5]; 1 mg/kg oral, 6 h, mean ± SD",0.739 ± 0.288 ng/mL
same,Plasma concentration of psilocin,"[5]; 1 mg/kg oral, 8 h, mean ± SD",0.453 ± 0.0460 ng/mL
same,Cmax/Dose of psilocin,"[5]; 1 mg/kg oral, dose of administered compound used, mean ± SD",19.7 ± 5.50 kg·ng/mL/mg
same,Plasma concentration of psilocin,"[5]; 3 mg/kg oral, 0.25 h, mean ± SD",55.6 ± 8.67 ng/mL
same,Plasma concentration of psilocin,"[5]; 3 mg/kg oral, 0.5 h, mean ± SD",32.3 ± 4.98 ng/mL
same,Plasma concentration of psilocin,"[5]; 3 mg/kg oral, 1 h, mean ± SD",9.29 ± 3.05 ng/mL
same,Plasma concentration of psilocin,"[5]; 3 mg/kg oral, 2 h, mean ± SD",7.67 ± 0.921 ng/mL
same,Plasma concentration of psilocin,"[5]; 3 mg/kg oral, 4 h, mean ± SD",6.76 ± 2.13 ng/mL
same,Plasma concentration of psilocin,"[5]; 3 mg/kg oral, 6 h, mean ± SD",2.41 ± 0.845 ng/mL
same,Plasma concentration of psilocin,"[5]; 3 mg/kg oral, 8 h, mean ± SD",0.722 ± 0.368 ng/mL
same,AUC0-tlast/Dose of psilocin,"[5]; 3 mg/kg oral, dose of administered compound used, mean ± SD",20.3 ± 2.78 kg·ng·h/mL/mg
same,time parent compound resides in plasma post-dosing,[5]; 10 mg/kg oral,up to 4 hours
same,Plasma concentration of psilocin,"[5]; 10 mg/kg oral, 0.25 h, mean ± SD",306 ± 34.6 ng/mL
same,Plasma concentration of psilocin,"[5]; 10 mg/kg oral, 0.5 h, mean ± SD",125 ± 16.3 ng/mL
same,Plasma concentration of psilocin,"[5]; 10 mg/kg oral, 1 h, mean ± SD",49.6 ± 10.5 ng/mL
same,Plasma concentration of psilocin,"[5]; 10 mg/kg oral, 2 h, mean ± SD",20.7 ± 1.42 ng/mL
same,Plasma concentration of psilocin,"[5]; 10 mg/kg oral, 4 h, mean ± SD",31.4 ± 6.34 ng/mL
same,Plasma concentration of psilocin,"[5]; 10 mg/kg oral, 6 h, mean ± SD",11.5 ± 1.43 ng/mL
same,Plasma concentration of psilocin,"[5]; 10 mg/kg oral, 8 h, mean ± SD",6.38 ± 2.98 ng/mL
same,Cmax/Dose of psilocin,"[5]; 10 mg/kg oral, dose of administered compound used, mean ± SD",30.6 ± 3.46 kg·ng/mL/mg
same,psilocin levels / exposure compared with E(VI)-treated mice,"[5]; oral dosing, Tables 16 and 17",higher psilocin levels
N[C@@H](Cc1c[nH]c2ccccc12)C(=O)O [tryptophan],5-HT1A receptor modulation (change in % cAMP),[1],no reduction in cellular cAMP levels
CN(C)CCc1c[nH]c2cccc(OP(=O)(O)O)c12 [psilocybin],stability,[6]; assay buffer (enzyme-free control),stability of psilocybin was confirmed in assay buffer
same,stability and conversion to psilocin,"[6]; liver fractions (HLM, HLS9)",stable in liver fractions with no conversion to psilocin
same,Plasma concentration of psilocybin,"[5]; 0.5 h, individual mice, No Peak = no detectable compound by LC-MS",No Peak and 2.35 ng/mL and 6.21 ng/mL
same,Plasma concentration of psilocybin,"[5]; 0.5 h, mean",4.28 (n = 2) ng/mL
same,Plasma concentration of psilocybin,"[5]; 1 h, individual mice, No Peak = no detectable compound by LC-MS",No Peak (2×) and 1.21 ng/mL
same,Plasma concentration of psilocybin,"[5]; 1 h, mean",1.21 (n = 1) ng/mL
same,Plasma concentration of psilocybin,"[5]; 2 h, individual mice, No Peak = no detectable compound by LC-MS",No Peak
same,Plasma concentration of psilocybin,"[5]; 4 h, individual mice, No Peak = no detectable compound by LC-MS",No Peak
same,Plasma concentration of psilocybin,"[5]; 6 h, individual mice, No Peak = no detectable compound by LC-MS",No Peak
same,Plasma concentration of psilocybin,"[5]; 8 h, individual mice, No Peak = no detectable compound by LC-MS, bolded value considered an outlier",No Peak (2×) and 2.54 ng/mL
same,Plasma concentration of psilocin,"[5]; 1.56 mg/kg oral, 24 h, individual mice, BLQ = below 0.2 ng/mL",BLQ
same,Plasma concentration of psilocin,[5]; [7],BLQ
same,detection of parent compound in plasma after oral administration,[5]; [8],not detectable in orally administered animals at any dose

# Reference: US20250206701A1
